The text below walks through data of patent publication US20060084789A1, “Immunotherapeutic and immunoprphylactic reagents” (priority 2002, published 2006).

Assay type in all cases: cell-based, human
The subject of assay [1] is RGP-specific TCL. Nature of the assay: TCL proliferation assay (3H-thymidine incorporation, stimulation index). The note with it: for Proliferative response, stimulation index: peptides 10 μg/ml. The procedure: Generation of Short-Term RGP-Specific TCL
PBMC were cultured in 24-well plates (Costar, Mass., USA) at 2.5×10^6 cells/well with RGP extract at a concentration of 25 or 50 μg/ml in RPMI 1640 medium (Gibco BRL, NY, USA) supplemented with 2 mM GlutaMAX I (Gibco BRL), 0.05 mg/ml gentamicin (David Bull Laboratories, Mulgrave, Victoria, Australia) and 5% heat-inactivated hunan AB^+ serum (Sigma, Mo., USA) for 7 days at 37° C. in a 5% CO2 humidified incubator. At day 7, cells were washed once and restimulated in 24-well plates at 5×10^5 cells/well width 25 or 50 μg/ml of RGP extract in the presence of 5×10^5 cells/well irradiated (3000 rads) autologous PBMC as a source of antigen presenting cells (APC). At day 2 following restimulation, 10 U/ml of Lymphocult T-LF (LC; Biotest, Germany) was added as a source of IL-2 and at day 4, 1 ml of culture medium was removed and replaced with fresh medium and 10 U/ml of LC. […] In all experiments T cells were rested for 6 to 7 days after the last addition of antigen and APC before testing.
T cells (5×10^4/well) were cultured in 96-well U bottom plates with either RGP extract at concentrations ranging from 25 to 200 μg/ml, purified Lol p 1 (0.12 to 2 μg/ml) or Lol p 5 (0.1 to 10 μg/ml), or Lol p 1 or Lol p 5 peptides (10 μg/ml), or medium alone (to determine background levels of proliferation), in the presence of washed autologous irradiated (3000 rads) PBMC (5×10^4/well). […] Cultures were incubated for 3 days, pulsed for the last 16 hours with ^3H-thymidine (1 μCi/well) and harvested onto glass fibre filters. ^3H-thymidine incorporation was measured by liquid scintillation spectroscopy and the mean counts per minute (cpm) for triplicate cultures was determined. Responses were considered positive if the stimulation index (SI, cpm of antigen-stimulated T cells divided by cpm of unstimulated T cells) was ≧2.5. Where several concentrations of allergen were tested (i.e., RGP, Lol p 1 and Lol p 5), values corresponding to the highest proliferation are shown.

In assay [2] the test system is IFN-γ production by RGP-specific TCL. Kind of assay: IFN-γ detection in culture supernatants by sandwich ELISA. As to conditions: supernatant at 48 h, UD undetectable, limit of detection 2 pg/ml. The procedure: (§1) Cytokine Detection in Culture Supernatants
(§2) Supernatants of triplicate cultures were harvested and pooled from T cell proliferation assay cultures at 48 hours for the detection of IL-5 and IFN-γ production by sandwich ELISA. Briefly white Maxisorp (NUNC, Roskilde, Denmark) ELISA plates were coated with capture mAb (anti-IL-5, Pharmingen, San Diego, Calif., USA; anti-IFN-γ, Endogen, Woburn, Mass. USA) overnight at 4° C. Plates were then washed and wells blocked with 1% Bovine Serum Albumin/PBS for 1 hour at room temperature. Following washing, test samples (neat) and serial dilutions of recombinant human IL-5 (Pharmingen, USA) or IFN-γ (Endogen, USA) (for the construction of standard curves) were added and incubated overnight at 4° C. Following washing, plates were incubated with biotinylated detecting mAb (anti-IL-5, Pharmingen, USA; […], Endogen, USA) for 1 hour at room temperature. Plates were then washed and incubated with streptavidin-peroxidase (Amersham, Piscataway, N.J., USA) for 30 minutes at room temperature. Following washing, a chemiluminescent substrate (Du Pont, Wilmington, Del., USA) was added to each well and plates read in a Lumicount microplate Glow Luminometer (Packard Instrument Company, Meriden, Conn., USA), 0.5 seconds/well, automatic sensitivity setting. Standard curve construction and determination of test sample cytokine levels were performed using Packard I-smart software. The limits of detection for IL-5 and IFN-γ were 10 pg/ml and 2 pg/ml respectively.

Assay [3] concerns IL-5 production by RGP-specific TCL. Nature of the assay: IL-5 detection in culture supernatants by sandwich ELISA. As to conditions: supernatant at 48 h, UD undetectable, limit of detection 10 pg/ml. On the procedure: as §1, §2
For orientation: In an ELISA, binding on a coated surface is turned into a signal by an enzyme label.

Setting [4] is: Subject 4 TCL, Lol p 1 series (Table 3), RGP and Lol p 1 maximal response.
The mark [5] stands for this setting: Subject 7 TCL, Lol p 1 series (Table 3), RGP and Lol p 1 maximal response.
[6] abbreviates: Subject 15 TCL, Lol p 1 series (Table 3), RGP and Lol p 1 maximal response.
Setting [7] is: Subject 19 TCL, Lol p 1 series (Table 3), RGP and Lol p 1 maximal response.
Where [8] appears, read: Subject 15 TCL, Lol p 1 peptides.
The mark [9] stands for this setting: Subject 19 TCL, Lol p 1 peptides.
Where [10] appears, read: Subject 38 TCL, Lol p 5 peptides.
Where [11] appears, read: Subject 2 TCL, Lol p 5 peptides.
Setting [12] is: Subject 20 TCL, Lol p 1 peptides.

Turning to “LDAKSTWYGKPTGAGPKDNG (Lolium perenne) [Lol p 1 peptide 19-38]”, in assay [1] (Lol p 1 peptide-responsive RGP-specific TCL, SI ≥2.5 positive, listed as Lol p 1 (19-3 8)), the “responder frequency among Lol p 1 peptide-responsive donors” value was 46%. Besides, the “Proliferative response, stimulation index” value in assay [1] (Subject 2 TCL, Lol p 1 series (Table 3), RGP and Lol p 1 maximal response) is listed as 5.2; in assay [1] (Subject 3 TCL, Lol p 1 series (Table 3), RGP and Lol p 1 maximal response), 3.3; in assay [1] (setting [4]), 12.3; in assay [1] (Subject 6 TCL, Lol p 1 series (Table 3), RGP and Lol p 1 maximal response), 2.7; in assay [1] (setting [5]), 3.2; in assay [1] (Subject 8 TCL, Lol p 1 series (Table 3), RGP and Lol p 1 maximal response), 3.8. Besides, the “Proliferative response, stimulation index” value turned out to be 7.5 in assay [1] (Subject 12 TCL, Lol p 1 series (Table 3), RGP and Lol p 1 maximal response); 10.5 in assay [1] (setting [6]); 5.3 in assay [1] (Subject 17 TCL, Lol p 1 series (Table 3), RGP and Lol p 1 maximal response); 10.3 in assay [1] (setting [7]); 3.8 in assay [1] (Subject 21 TCL, Lol p 1 series (Table 3), RGP and Lol p 1 maximal response). The “IFN-γ, proliferation inducing peptides” value in assay [2] (Subject 3 TCL, Lol p 1 peptides) is 20.9 pg/mL; in assay [2] (setting [8]) it was 204.1 pg/mL; in assay [2] (setting [9]), 2.8 pg/mL. In addition, in assay [3] (setting [8]), the “IL-5, proliferation inducing peptides” value was found to be 182.7 pg/mL.

As for “ADKFKIFEAAFSESSKGLLA (Lolium perenne) [Lol p 5 peptide 55-74]”, the “Proliferative response, stimulation index” value is 3.3 in assay [1] (Subject 36 TCL, Lol p 5 series (Table 4), RGP and Lol p 5 maximal response); 3.3 in assay [1] (Subject 38 TCL, Lol p 5 series (Table 4), RGP and Lol p 5 maximal response, * SDS-PAGE purified Lol p 5). The “IFN-γ, proliferation inducing peptides” value in assay [2] (setting [10]) was determined as 54.2 pg/mL. For the same substance, in assay [3] (setting [10]), the “IL-5, proliferation inducing peptides” value was found to be 220.7 pg/mL.

Take “Lol p 5 peptide 190-209: synthetic 20-mer, amino acids 190-209 of Lol p 5A (SEQ ID NO:2) (GAYETYKFIPSLEAAVKQAY; Lolium perenne)”: the “Proliferative response, stimulation index” value in assay [1] (Subject 2 TCL, Lol p 5 series (Table 4), RGP and Lol p 5 maximal response) worked out at 3.0; in assay [1] (Subject 4 TCL, Lol p 5 series (Table 4), RGP and Lol p 5 maximal response) it was 5.1; in assay [1] (Subject 11 TCL, Lol p 5 series (Table 4), RGP and Lol p 5 maximal response) it was 4.0; in assay [1] (Subject 29 TCL, Lol p 5 series (Table 4), RGP and Lol p 5 maximal response) it was 3.1. Also, the “IFN-γ, proliferation inducing peptides” value in assay [2] (setting [11]) is 7.8 pg/mL. Besides, the “IL-5, proliferation inducing peptides” value in assay [3] (setting [11]) was found to be 518.1 pg/mL.

“KESWGAVWRIDTPDKLTGPF (Lolium perenne) [Lol p 1 peptide 190-209]”: the “Proliferative response, stimulation index” value was found to be 6.2 in assay [1] (setting [4]); 3.7 in assay [1] (Subject 10 TCL, Lol p 1 series (Table 3), RGP and Lol p 1 maximal response); 3.3 in assay [1] (Subject 11 TCL, Lol p 1 series (Table 3), RGP and Lol p 1 maximal response); 5.7 in assay [1] (Subject 14 TCL, Lol p 1 series (Table 3), RGP and Lol p 1 maximal response); 5.4 in assay [1] (Subject 18 TCL, Lol p 1 series (Table 3), RGP and Lol p 1 maximal response); 3.0 in assay [1] (setting [7]). Also, the “Proliferative response, stimulation index” value in assay [1] (Subject 22 TCL, Lol p 1 series (Table 3), RGP and Lol p 1 maximal response) is listed as 5.7; in assay [1] (Subject 23 TCL, Lol p 1 series (Table 3), RGP and Lol p 1 maximal response), 5.2. Also, the “IFN-γ, proliferation inducing peptides” value was 9.0 pg/mL in assay [2] (Subject 10 TCL, Lol p 1 peptides); 63.5 pg/mL in assay [2] (setting [8]); 8.3 pg/mL in assay [2] (Subject 23 TCL, Lol p 1 peptides). The entries for the “IL-5, proliferation inducing peptides” value in assay [3] (setting [8]) and in assay [3] (setting [9]) were 15.3 pg/mL and 14.7 pg/mL, respectively.

For “Lol p 1 peptide 64-83: synthetic 20-mer, amino acids 64-83 of Lol p 1A (SEQ ID NO:1) (KDGRGCGSCFEIKCTKPESC; Lolium perenne)”, the “Proliferative response, stimulation index” value turned out to be 7.2 in assay [1] (Subject 1 TCL, Lol p 1 series (Table 3), RGP and Lol p 1 maximal response); 3.5 in assay [1] (setting [5]); 3.5 in assay [1] (setting [6]). In addition, in assay [2] (setting [8]), the “IFN-γ, proliferation inducing peptides” value came to 38.8 pg/mL. For the same substance, the “IL-5, proliferation inducing peptides” value in assay [3] (setting [8]) is 26.5 pg/mL.

As for “Lol p 1 peptide 37-56: synthetic 20-mer, amino acids 37-56 of Lol p 1A (SEQ ID NO:1) (NCGACGYKDVDKAPFNGMTG; Lolium perenne)”, the “Proliferative response, stimulation index” value in assay [1] (setting [4]) came out at 2.5; in assay [1] (Subject 20 TCL, Lol p 1 series (Table 3), RGP and Lol p 1 maximal response), 2.6. For the same substance, the “IFN-γ, proliferation inducing peptides” value in assay [2] (setting [12]) is 11.1 pg/mL. The “IL-5, proliferation inducing peptides” value in assay [3] (setting [12]) was found to be 46.9 pg/mL.
